Experiments:
[1] = test system: NIH3T3 (mouse fibroblast); experiment: Cell growth inhibition (WST-1), NIH3T3; format: cell-based; conditions: 48 hr culture, read-out: GI50, the concentration when the cancer cell growth is inhibited by 50%
Protocol: (§1) NIH3T3 (mouse fibroblast), K-ras (K-ras gene transformed NIH3T3 cell), H-ras (H-ras gene transformed NIH3T3 cell) and SW620 (human colon cancer cell) solid tumor cell lines were cultured in 10% of bovine serum albumin or RPMI 1640 medium (containing L-glutamine and not containing sodium bicarbonate; Gibco Cat. No 31800-022) under 37° C. and 5% CO2 condition. The subculture was carried out 2 times a week. The cells were separated from the wall using 0.5% of trypsin and 5.3 mM EDTA (ethylenediamine tetra acetic acid) dissolved in phosphate buffer solution (PBS). In each well of 96-well plate (Falcon), 3×10^3-6×10^3 cells were added and cultured at 37° C. in the presence of 5% CO2 of medium for 24 hr. The new compound was dissolved in dimethyl sulfoxide (DMSO) and diluted to the concentration required for the test. The final concentration of DMSO was set to be lower than 0.5%.
(§2) After removing all medium from the 96-well plate, […] of the new compound was added to each well. After 48 hr of culture, WST-1 was added to each well. Then the culture plate was placed for 3 hr at 37° C. in the presence of 5% CO2. When the reaction was completed, light absorption at 450-690 nm was measured by using an ELISA reader to identify the cancer cell growth inhibition effect.

[2] = test system: SW620 (human colon cancer cell); experiment: Cell growth inhibition (WST-1), SW620; format: cell-based; conditions: SW-620, 48 hr culture, read-out: GI50, the concentration when the cancer cell growth is inhibited by 50%
Protocol: as §1, §2

Molt-4 cell = experiment: Leukemia cell growth inhibition, Molt-4; format: cell-based; conditions: Homo sapiens, read-out: GI50, the concentration when the cancer cell growth is inhibited by 50%
Protocol: as §2

HL-60 cell = experiment: Leukemia cell growth inhibition, HL-60; format: cell-based; conditions: Homo sapiens, read-out: GI50, the concentration when the cancer cell growth is inhibited by 50%
Protocol: as §2

[3] = test system: K-ras (K-ras gene transformed NIH3T3 cell); experiment: Cell growth inhibition (WST-1), K-ras; format: cell-based; conditions: Mus musculus, 48 hr culture, read-out: GI50, the concentration when the cancer cell growth is inhibited by 50%
Protocol: as §1, §2

[4] = test system: H-ras (H-ras gene transformed NIH3T3 cell); experiment: Cell growth inhibition (WST-1), H-ras; format: cell-based; conditions: Mus musculus, 48 hr culture, read-out: GI50, the concentration when the cancer cell growth is inhibited by 50%
Protocol: as §1, §2

farnesyl transferase = molecular target: T1, farnesyl transferase (Rattus norvegicus, UniProt Q02293+Q04631); experiment: Farnesyl transferase inhibition, scintillation proximity assay with 3H-FPP and biotin-lamin B peptide; format: biochemical
T1 construct: 100-150 g of brain was separated from a male rat (Sprague Dowley); from tissue; host or cells: rat (Sprague Dawley) brain
Protocol: 100-150 g of brain was separated from a male rat (Sprague Dowley). It was washed with a physiological salt solution and homogenized. Then, farnesyl transferase enzymogen was separated by centrifuging and partially purifying the homogenate with a Q Sepharose Fast Flow Column. The enzyme activity was determined by scintillation proximity assay (SPA), using the ^3H-farnesyl pyrophosphate (FPP) substrate.
To be specific, the method of Michael S. Brown, etc. (Yuval Reiss, Joseph L. Goldstein, Miguel C. Seabra, Patrick J. Casey and Michael S. Brown, 1990, Inhibition of Purified p21ras Farnesyl Protein Transferase by Cys-AAX Tetrapeptides, 62, 81-88) was modified a little. 10 μl of the sample liquid, 10 μl of analysis buffer solution (50 mM Tris-HCL pH7.5, 25 mM MgCl2, 2 mM KCl, 5 mM DTT, 5 mM Na2HPO4, 0.01% Triton X-100), 20 μl of diluted ^3H-FPP, 20 μl biotin-lamin B peptide and 40 μl of farnesyl transferase were mixed well and rendered to react for 30 min at room temperature. Then, 150 μl of SPA bead/stop reagent solution was added. The farnesylation level of biotin-lamin B peptide was measured by using a scintillation counter in CPM (counts per minute) unit. The farnesyl transferase activity inhibition was calculated via Equation 1. [formula] […]

mice = experiment: Toxicity test in mice; format: in vivo
Protocol: The compound expressed by the formula 1 was dissolved in dimethyl sulfoxide (DMSO). The solution was diluted with water and administered to mice (10 heads per group) by 100 μg/kg.

[5] = Physical and chemical properties: solubility in solvents; format: physicochemical
Protocol: The structure of the obtained white powder compound was analyzed by NMR. The compound is expressed by Formula 1 (molecular formula=C25H32O4; molecular weight=396.52).

With `C=C1C(=O)O[C@@H]2[C@@H]1CC[C@](C)(O)C13C=CC(C)([C@@H]21)[C@]1(C3)C(=O)C[C@@]2(C(C)C)C[C@H]21` (some centres unmarked) [Formula 1, Artemisolide] the GI50 [1] was ~5.5 µg/mL, the GI50 [2] was 2.5 µg/mL and the GI50 (Molt-4 cell) was 3.2 µM. It also gave a GI50 (HL-60 cell) of ~1.5 µM, a GI50 [3] of ~0.8 µg/mL and a GI50 [4] of 1.2 µg/mL. For the same compound, the inhibition at 100 µg/mL (farnesyl transferase; at 100 μg/ml) was ~50%, the IC50 (farnesyl transferase; read-out: IC50 (concentration for inhibiting activity by 50%) on farnesyl transferase (converted)) was ~252 µM and the “acute toxicity in the animal test” value (mice) was “no acute toxicity”. The “Insoluble in” value [5] was “Hexane” and the “Soluble in” value [5] was “MeOH; acetone; EtOAc”.

Source: patent US6808724B2, “Artemisolide compound isolated from the aerial parts of Artemisia sylvatica, isolation method, and use thereof” (Korea Research Institute of Bioscience and Biotechnology, priority 2002, dated 2004)
